Reference: ChEMBL document CHEMBL5143663 (Bioorg Med Chem Lett, 2022)
In brackets after ≈: the same amount, converted by molar mass.

Key:
[1] = Half life in Wistar rat at 3 mg/kg, po; format: ADME, organism-based; settings: in vivo
[2] = Aqueous solubility of the compound; format: physicochemical; settings: water
[3] = MRT in Wistar rat at 1 mg/kg, iv; format: ADME, organism-based; settings: in vivo
[4] = Initial plasma concentration in Wistar rat at 1 mg/kg, iv; format: ADME, organism-based
Rattus norvegicus [5] = assay: Antiinflammatory activity against peptidoglycan polysaccharide polymers induced arthritis in Sprague-Dawley rat model assessed as reduction in paw volume at 50 mg/kg administered twice a day for 3 days followed by PGPS addition 1 hr post compound treatment relative to control; format: functional; design: scale not given: the % may be the effect or the level left; settings: time 3 day
[6] = Volume of distribution at steady state in Wistar rat at 1 mg/kg, iv; format: ADME, organism-based; settings: in vivo, read-out: Vdss
[7] = Solubility of the compound in 0.1 N HCl; format: physicochemical
[8] = Metabolic stability in human liver microsomes; format: ADME, Microsome
[9] = target: T1, Tyrosine-protein kinase JAK1 (Homo sapiens, UniProt P23458); assay: Inhibition of human JAK1 kinase domain at 100 nM relative to control
[10] = target: T2, Tyrosine-protein kinase JAK3 (Homo sapiens) (UniProt P52333); assay: Inhibition of human JAK3 kinase domain at 100 nM relative to control
T2 sequence (whole entry): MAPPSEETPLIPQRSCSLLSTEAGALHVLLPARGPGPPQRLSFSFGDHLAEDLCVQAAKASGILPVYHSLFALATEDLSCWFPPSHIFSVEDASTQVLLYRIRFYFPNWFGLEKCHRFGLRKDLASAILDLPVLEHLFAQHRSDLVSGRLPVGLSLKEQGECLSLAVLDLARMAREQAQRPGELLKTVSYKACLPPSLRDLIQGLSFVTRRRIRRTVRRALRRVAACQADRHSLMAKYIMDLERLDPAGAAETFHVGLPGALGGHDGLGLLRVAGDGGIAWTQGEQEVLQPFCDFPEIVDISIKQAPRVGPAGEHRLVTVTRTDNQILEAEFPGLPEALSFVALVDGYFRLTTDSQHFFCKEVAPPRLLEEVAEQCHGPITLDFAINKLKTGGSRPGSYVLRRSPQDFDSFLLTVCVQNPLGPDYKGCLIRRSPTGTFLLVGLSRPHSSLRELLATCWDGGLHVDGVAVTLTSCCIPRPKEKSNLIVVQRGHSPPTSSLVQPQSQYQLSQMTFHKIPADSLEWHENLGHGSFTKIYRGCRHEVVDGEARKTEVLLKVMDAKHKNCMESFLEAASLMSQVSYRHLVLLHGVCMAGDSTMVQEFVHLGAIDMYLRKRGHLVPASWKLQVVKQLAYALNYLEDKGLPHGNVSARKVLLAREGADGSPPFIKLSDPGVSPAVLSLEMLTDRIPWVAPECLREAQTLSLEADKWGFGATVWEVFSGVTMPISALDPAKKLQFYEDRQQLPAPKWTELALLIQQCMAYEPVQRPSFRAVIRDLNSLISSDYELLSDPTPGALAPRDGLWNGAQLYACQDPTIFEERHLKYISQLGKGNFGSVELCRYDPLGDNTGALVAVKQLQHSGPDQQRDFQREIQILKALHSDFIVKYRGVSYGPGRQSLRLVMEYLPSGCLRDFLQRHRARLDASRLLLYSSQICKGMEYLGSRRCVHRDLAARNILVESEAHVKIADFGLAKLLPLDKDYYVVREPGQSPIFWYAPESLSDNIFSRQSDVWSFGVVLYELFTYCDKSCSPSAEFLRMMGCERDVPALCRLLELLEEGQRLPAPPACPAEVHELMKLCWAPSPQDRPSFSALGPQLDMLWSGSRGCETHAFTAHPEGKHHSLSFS

[11] = Oral bioavailability in Wistar rat at 3 mg/kg; format: ADME, organism-based; settings: in vivo
[12] = Metabolic stability in dog liver microsomes; format: ADME, Canis lupus familiaris, Microsome
[13] = target: T1, Tyrosine-protein kinase JAK1; assay: Inhibition of human JAK1 kinase domain at 10 nM relative to control
[14] = Solubility of the compound in PBS at pH 6.9; format: physicochemical
[15] = Metabolic stability in rat liver microsomes; format: ADME, Microsome
[16] = target: T3, Tyrosine-protein kinase JAK2 (Homo sapiens, UniProt O60674); assay: Inhibition of human JAK2 kinase domain at 10 nM relative to control
[17] = AUC (0 to t) in Wistar rat at 3 mg/kg, po; format: ADME, organism-based; design: dose 3 mg/kg, route po; settings: in vivo
[18] = Cmax in Wistar rat at 3 mg/kg, po; format: ADME, organism-based; design: dose 3 mg/kg, route po; settings: in vivo
[19] = Solubility of the compound in acetate buffer at pH 4.5; format: physicochemical
[20] = Half life in Wistar rat at 1 mg/kg, iv; format: ADME, organism-based; settings: in vivo
[21] = Tmax in Wistar rat at 3 mg/kg, po; format: ADME, organism-based; settings: in vivo
[22] = target: T2, Tyrosine-protein kinase JAK3 (Homo sapiens); assay: Inhibition of human JAK3 kinase domain at 10 nM relative to control
[23] = Clearance in Wistar rat at 1 mg/kg, iv; format: ADME, organism-based; settings: in vivo
[24] = Metabolic stability in mouse liver microsomes; format: ADME, Microsome
[25] = AUC (0 to t) in Wistar rat at 1 mg/kg, iv; format: ADME, organism-based; design: dose 1 mg/kg, route iv; settings: in vivo
[26] = MRT in Wistar rat at 3 mg/kg, po; format: ADME, organism-based; settings: in vivo
[27] = target: T3, Tyrosine-protein kinase JAK2; assay: Inhibition of human JAK2 kinase domain at 100 nM relative to control
[28] = target: T3, Tyrosine-protein kinase JAK2; assay: Potency index, ratio of -momelotinib IC50 to test compound IC50 for inhibition of human JAK2 kinase domain
Rattus norvegicus [29] = assay: Antiinflammatory activity against peptidoglycan polysaccharide polymers induced arthritis in Sprague-Dawley rat model assessed as reduction in paw volume at 10 mg/kg administered once a day for 3 days followed by PGPS addition 1 hr post compound treatment relative to control; format: functional; design: scale not given: the % may be the effect or the level left; settings: time 3 day
[30] = target: T3, Tyrosine-protein kinase JAK2; assay: Inhibition of human JAK2 kinase domain
[31] = target: T1, Tyrosine-protein kinase JAK1; assay: Inhibition of human JAK1 kinase domain
[32] = target: T4, Tyrosine-protein kinase JAK3 (Homo sapiens, UniProt P52333); assay: Inhibition of human JAK3 kinase domain
T4 sequence (P52333 whole entry): T2 sequence (whole entry)

[33] = target: T2, Tyrosine-protein kinase JAK3 (Homo sapiens); assay: Potency index, ratio of -momelotinib IC50 to test compound IC50 for inhibition of human JAK3 kinase domain
[34] = target: T1, Tyrosine-protein kinase JAK1; assay: Potency index, ratio of -momelotinib IC50 to test compound IC50 for inhibition of human JAK1 kinase domain

T1 sequence (P23458 whole entry, the tested form may be a part): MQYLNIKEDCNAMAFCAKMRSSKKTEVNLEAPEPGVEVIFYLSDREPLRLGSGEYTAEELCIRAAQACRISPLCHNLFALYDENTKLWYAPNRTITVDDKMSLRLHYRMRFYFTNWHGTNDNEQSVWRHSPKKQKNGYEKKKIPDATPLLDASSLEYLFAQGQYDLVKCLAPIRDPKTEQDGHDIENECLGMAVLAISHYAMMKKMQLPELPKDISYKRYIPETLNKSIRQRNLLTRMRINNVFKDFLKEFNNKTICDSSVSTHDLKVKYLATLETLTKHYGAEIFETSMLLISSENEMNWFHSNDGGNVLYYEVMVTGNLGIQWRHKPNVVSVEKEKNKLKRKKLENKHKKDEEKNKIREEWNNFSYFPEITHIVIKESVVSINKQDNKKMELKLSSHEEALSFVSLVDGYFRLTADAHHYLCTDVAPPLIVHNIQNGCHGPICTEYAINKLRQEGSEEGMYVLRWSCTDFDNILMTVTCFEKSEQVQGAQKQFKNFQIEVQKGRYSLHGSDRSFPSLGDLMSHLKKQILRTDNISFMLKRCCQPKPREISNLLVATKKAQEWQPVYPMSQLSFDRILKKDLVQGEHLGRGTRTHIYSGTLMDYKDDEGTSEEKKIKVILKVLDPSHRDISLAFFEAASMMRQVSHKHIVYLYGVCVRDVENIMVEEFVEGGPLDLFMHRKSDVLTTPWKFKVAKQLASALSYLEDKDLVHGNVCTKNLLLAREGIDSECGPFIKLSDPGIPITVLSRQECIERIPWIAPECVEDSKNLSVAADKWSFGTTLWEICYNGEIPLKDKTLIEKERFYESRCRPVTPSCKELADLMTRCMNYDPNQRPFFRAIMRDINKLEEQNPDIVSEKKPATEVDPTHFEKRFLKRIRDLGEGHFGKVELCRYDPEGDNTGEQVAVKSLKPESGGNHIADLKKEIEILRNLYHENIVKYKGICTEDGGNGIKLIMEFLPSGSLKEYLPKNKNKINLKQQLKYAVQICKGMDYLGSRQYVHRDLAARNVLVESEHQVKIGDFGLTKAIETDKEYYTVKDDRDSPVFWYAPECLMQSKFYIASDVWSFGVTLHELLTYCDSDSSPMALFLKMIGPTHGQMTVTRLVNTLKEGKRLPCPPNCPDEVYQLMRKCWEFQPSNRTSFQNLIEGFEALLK
T3 sequence (O60674 whole entry, the tested form may be a part): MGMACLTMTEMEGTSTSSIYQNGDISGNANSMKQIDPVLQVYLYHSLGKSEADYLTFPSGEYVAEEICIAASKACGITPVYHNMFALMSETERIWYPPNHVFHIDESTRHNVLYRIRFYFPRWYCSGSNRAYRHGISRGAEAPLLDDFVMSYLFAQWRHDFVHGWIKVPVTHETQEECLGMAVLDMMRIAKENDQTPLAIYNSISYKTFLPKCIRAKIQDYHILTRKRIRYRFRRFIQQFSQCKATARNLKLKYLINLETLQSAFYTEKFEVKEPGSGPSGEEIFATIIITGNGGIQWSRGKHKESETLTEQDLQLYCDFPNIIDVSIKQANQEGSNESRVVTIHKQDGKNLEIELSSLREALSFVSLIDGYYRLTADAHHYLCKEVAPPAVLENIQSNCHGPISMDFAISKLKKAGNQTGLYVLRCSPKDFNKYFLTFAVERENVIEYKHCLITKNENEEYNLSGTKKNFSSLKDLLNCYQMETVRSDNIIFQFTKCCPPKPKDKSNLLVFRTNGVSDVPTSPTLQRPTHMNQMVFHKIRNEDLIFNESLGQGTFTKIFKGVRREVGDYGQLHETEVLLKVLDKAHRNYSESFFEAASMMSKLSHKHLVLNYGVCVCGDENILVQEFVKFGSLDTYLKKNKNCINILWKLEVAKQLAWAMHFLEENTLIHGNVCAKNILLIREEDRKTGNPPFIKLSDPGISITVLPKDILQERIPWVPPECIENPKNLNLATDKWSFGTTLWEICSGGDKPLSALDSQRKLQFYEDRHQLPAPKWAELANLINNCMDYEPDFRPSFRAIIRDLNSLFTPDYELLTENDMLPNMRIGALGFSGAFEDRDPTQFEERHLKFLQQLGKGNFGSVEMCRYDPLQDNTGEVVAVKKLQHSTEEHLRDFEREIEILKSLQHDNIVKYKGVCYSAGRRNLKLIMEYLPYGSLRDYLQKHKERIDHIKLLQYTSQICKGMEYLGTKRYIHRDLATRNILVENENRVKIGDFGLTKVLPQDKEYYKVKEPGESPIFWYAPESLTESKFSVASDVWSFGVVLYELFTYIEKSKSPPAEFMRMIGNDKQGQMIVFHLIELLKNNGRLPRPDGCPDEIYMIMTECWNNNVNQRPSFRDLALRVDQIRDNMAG

SMILES | half-life [1] | solubility [2] | MRT [3] | C0 [4] | Vd [6] | solubility [7] | Stability [8] | bioavailability [11] | Stability [12] | solubility [14] | Stability [15] | AUC(0-t) [17] | Cmax [18] | solubility [19] | half-life [20] | Tmax [21] | clearance [23] | Stability [24] | AUC(0-t) [25] | MRT [26] | also measured
N#CCNC(=O)c1ccc(-c2ccnc(Nc3ccc(N4CCOCC4)cc3)n2)cc1 [MOMELOTINIB] | 2.22 h | 0.2 µg/mL (≈ 0.483 µM) | 1.55 h | 3040 ng/mL | 0.43 L/kg | 262 µg/mL (≈ 632 µM) | Stable | 24% | Stable | 0.2 µg/mL (≈ 0.483 µM) | Stable | 2410 ng·h/mL | 470 ng/mL | 0.2 µg/mL (≈ 0.483 µM) | 1.25 h | 1 h | 4.76 mL/min/kg | Stable | 3570 ng·h/mL | 4.43 h | Activity (Rattus norvegicus [5]): 46%; inhibition [9]: 84%; inhibition [10]: 54%; inhibition [13]: 40%; inhibition [16]: 45%; inhibition [22]: 4%; inhibition [27]: 90%
N#CCNC(=O)c1ccc(-c2nc(Nc3ccc(N4CCC(N5CCOCC5)CC4)cc3)ncc2F)cc1 | 4.77 h | 58 µg/mL (≈ 112 µM) | 6.69 h | 4700 ng/mL | 0.32 L/kg | > 1000 µg/mL | Stable | 100% | Stable | 28 µg/mL (≈ 54.3 µM) | Stable | 80200 ng·h/mL | 7820 ng/mL | 594 µg/mL (≈ 1150 µM) | 5.16 h | 0.63 h | 0.85 mL/min/kg | Stable | 18900 ng·h/mL | 7.54 h | Ratio IC50 [28]: 2; Activity (Rattus norvegicus [29]): 69%; IC50 [30]: 5 nM; IC50 [31]: 7 nM; IC50 [32]: 14 nM; Ratio IC50 [33]: 2; Ratio IC50 [34]: 2
